The values below come from US8012983B2, “Substituted triazolopyrazines useful for the treatment of degenerative and inflammatory diseases” (Galapagos NV, priority 2008, dated 2011).

Assay [1] concerns MMP1 expression by activated synovial fibroblasts (RASFs). Description: 'MMP assay': complex trigger-induced MMP1 expression by synovial fibroblasts (MMP1 ELISA). Type of assay: cell-based. Conditions: Homo sapiens, Fibroblast; complex trigger activated SFs, 48 hrs, FIG. 3; read-out: IC50 value, reduction of MMP1 expression by SFs. As for the experimental part: A 384-well format ELISA for measurement of MMP1 is developed. Various primary antibodies are tested, as well as various ELISA protocols. The following protocol is developed and validated to measure MMP1 levels in SF supernatant in 384 well plates: white Lumitrac 600 384 well plates (Greiner) are coated with 2 μg/mL anti-MMP1 antibody MAB1346 (Chemicon). The antibody is diluted in buffer 40 (1.21 g Tris base (Sigma), 0.58 g NaCl (Calbiochem) and 5 ml 10% NaN3 (Sigma) in 1 L milliQ water and adjusted to pH 8.5). After overnight incubation at 4° C., plates are washed with PBS (80 g NaCl, 2 g KCl (Sigma), 11.5 g Na2HPO4.7H2O and 2 g KH2PO4 in 10 L milliQ; pH 7.4) and blocked with 100 μL/well Casein buffer (2% Casein (VWR International) in PBS). Next day, casein buffer is removed from ELISA plates and replaced by 50 μL/well EC buffer (4 g casein, 2.13 g Na2HPO4 (Sigma), 2 g bovine albumin (Sigma), 0.69 g NaH2PO4.H2O (Sigma), 0.5 g CHAPS (Roche), 23.3 g NaCl, 4 ml 0,5 M EDTA pH 8 (Invitrogen), 5 ml 10% NaN3 in 1 L milliQ and adjusted to pH 7.0). 0.25 mM DTT (Sigma) is added to the thawed samples plates. After removal of the EC buffer, 20 μL of sample is transferred to the ELISA plates. After overnight incubation at 4° C. plates are washed twice with PBS and once with PBST (PBS with 0.05% Tween-20 (Sigma)) and incubated with 35 μL/well biotinylated anti-MMP1 antibody solution (R&D). This secondary antibody is diluted in buffer C (0.82 g NaH2PO4.H2O, 4.82 g Na2HPO4, 46.6 g NaCl, 20 g bovine albumin and 4 mL 0,5M EDTA pH 8 in 2 L milliQ and adjusted to pH 7.0) at a concentration of 5 μg/mL. After 2 h of incubation at RT, plates are washed as described above and incubated with 50 μL/well streptavidin-HRP conjugate (Biosource). Streptavidin-HRP conjugate is diluted in buffer C at a concentration of 0.25 μg/mL. After 45 min, plates are washed as described above and incubated for 5 min with 50 μL/well BM Chem ELISA Substrate (Roche). Readout is performed on the Luminoscan Ascent Luminometer (Labsystems) with an integration time of 200 msec or with an Envision reader (Perkin Elmer).
The increase of MMP1 expression by SFs upon treatment with cytokines relevant in the field of RA (TNF-α, IL1β and OSM) or a combination thereof is shown in FIG. 2 as white bars. For this experiment, SFs are seeded in 96 well plates, 3,000 cells/well. 24 h later, the medium is changed to M199 medium supplemented with 1% FBS. One day after the medium change, cytokines or combinations thereof are added to the cultures, each cytokine being added to a final concentration of 25 ng/mL. 72 h after cytokine addition, the supernatant is collected and processed in the MMP1 ELISA as described in the protocol given above. In parallel with this experiment, SFs are triggered, using the same protocol, with the supernatant of THP1 cells (2-fold diluted in M199+1% FBS) treated with the same cytokines or combinations of cytokines for 48 h in M199 medium+1% FBS. The induction of the MMP1 expression by SFs triggered with the supernatants of TNF-α-treated THP1 cells is stronger (>4.5 fold induction) as compared to the SFs triggered with recombinant TNF-α alone (3-fold induction) and almost equals the 5-fold induction obtained by a mixture of 3 purified cytokines (TNF-α, IL1βb, OSM). […] As the role of TNF-α in the RA pathogenesis is validated (TNF-α-blockers such as Infliximab and Etanercept show some efficacy in the treatment of RA patients) and the THP-1 cells are representative for monocytes/macrophages present in the joint of RA patients, the TNF-α-based trigger mixture prepared by contacting THP-1 cells with TNF-α will contain factors present in the joints of RA patients and subsequently is relevant to RA. This TNF-α-based complex trigger, further referred to as the ‘complex trigger’, will further be used as basis for the ‘MMP assay’. […]
On the technique in general: An ELISA detects its analyte on a solid surface through an enzyme-linked reagent.

The test system of a further assay is TNF alpha. Description: Septic shock model (LPS-induced TNF release). Type of assay: in vivo, BALB/cJ female mice. The conditions noted are these: after injection of LPS, benchmark, FIG. 7.

Description for TNF alpha: Six BALB/cJ female mice (20 g) per group are treated at the intended dosing once, po. Thirty minutes later, LPS (15 μg/kg; E. coli serotype 0111:B4) is injected ip. Ninety minutes later, mice are euthanized and blood is collected. Circulating TNF alpha levels are determined using commercially available ELISA kits. Dexamethasone (5 μg/kg) is used as a reference anti-inflammatory compound.

With `C[C@@H]1C[C@H]2[C@@H]3CCC4=CC(=O)C=C[C@]4(C)[C@@]3(F)[C@@H](O)C[C@]2(C)[C@@]1(O)C(=O)CO` [dexamethasone, reference compound], the IC50 in assay [1] was ~1 nM. Moreover, in the assay with TNF alpha, the “percentage inhibition of TNF alpha release” value came to 100%.

For orientation: IC50 means the point on the concentration scale where inhibition reaches its midpoint.
